A short description of series [1]: Cytotoxic assay (MTT, ISO 10993-5:2009(E)), 24 h treatment. The format is cell-based. The note with it: L929 mouse fibroblast cells, L929 mouse fibroblasts, values above highest tested concentration extrapolated. The protocol: The L929 mouse fibroblast (ATTC® CCL-1™, Manassas, VA, USA) were culturing according to the ATCC product sheet. […] The cell viability assay were performed precisely according to international standards (ISO 10993-5:2009(E)), using the tetrazolium salt [3-(4,5-dimethylthiazol-2-yl)-2,5-diphenyltetrazolium bromide] (MTT, Sigma-Aldrich) and mouse fibroblasts L929 cells. Cells (1 × 10^4 per well) were treated 24 h with compounds or drug in different concentration range. The optical density at 570 nm on the ELISA reader (Multiskan EX, Labsystems, Vienna, VA, USA), was read. The results were expressed as a percentage of viability compared to untreated cells. […] The CC30/CC50 represents the concentration of tested compounds or drugs that was required for 30% or 50% cells proliferation inhibition in vitro. According to the previously mentioned ISO 10993-5:2009(E) norm, the CC30 value is recognized as non-cytotoxic concentration for the cell line. All experiments were performed in triplicate.

For orientation: melting point means the temperature, or range, at which the solid turns liquid. As a reminder, the CC50 is the concentration giving 50% cytotoxicity.

Some results are limits rather than exact numbers.

`O=C1CSC(=NN=Cc2cccc(O)c2)N1c1ccccc1` [Compound 42, 2-{[(3-Hydroxyphenyl)methylidene]hydrazinylidene}-3-phenyl-1,3-thiazolidin-4-one] showed a melting point of 235 to 236 °C. Further, in series [1], the half-maximal cytotoxic concentration (CC50) at 24 h was 234 µM. For the molecule `O=C1CSC(=NN=Cc2ccc(O)cc2)N1c1ccccc1` [Compound 43, 2-{[(4-Hydroxyphenyl)methylidene]hydrazinylidene}-3-phenyl-1,3-thiazolidin-4-one], in series [1], the CC50 at 24 h is 485 µM. For `CCOc1cc(C=NN=C2SCC(=O)N2c2ccccc2)ccc1O` [Compound 45, 2-{[(3-Ethoxy-4-hydroxyphenyl)methylidene]hydrazinylidene}-3-phenyl-1,3-thiazolidin-4-one], the melting point is 229 to 230 °C.

`O=C1CSC(=NN=Cc2ccc(O)c(Cl)c2)N1c1ccccc1` [Compound 46, 2-{[(3-Chloro-4-hydroxyphenyl)methylidene]hydrazinylidene}-3-phenyl-1,3-thiazolidin-4-one] registered a melting point of 215 to 216 °C.

For the molecule `O=C1CSC(=NN=Cc2ccc(O)c(Br)c2)N1c1ccccc1` [Compound 47, 2-{[(3-Bromo-4-hydroxyphenyl)methylidene]hydrazinylidene}-3-phenyl-1,3-thiazolidin-4-one], the melting point was 216 to 218 °C.

In the case of `O=C1CSC(=NN=Cc2ccccc2O)N1c1ccccc1Cl` [Compound 48, 3-(2-Chlorophenyl)-2-{[(2-hydroxyphenyl)methylidene]hydrazinylidene}-1,3-thiazolidin-4-one], the melting point was 168 to 170 °C.

The molecule `O=C1CSC(=NN=Cc2cccc(O)c2)N1c1ccccc1Cl` [Compound 49, 3-(2-Chlorophenyl)-2-{[(3-hydroxyphenyl)methylidene]hydrazinylidene}-1,3-thiazolidin-4-one] registered a melting point of 192 to 194 °C. Further, the 50% cytotoxic concentration (CC50) at 24 h in series [1] is 188 µM.

Molecule `O=C1CSC(=NN=Cc2ccc(O)cc2)N1c1ccccc1Cl` [Compound 50, 3-(2-Chlorophenyl)-2-{[(4-hydroxyphenyl)methylidene]hydrazinylidene}-1,3-thiazolidin-4-one] had a melting point of 178 to 180 °C. Also, the CC50 at 24 h in series [1] was 226 µM. Molecule `CCOc1cc(C=NN=C2SCC(=O)N2c2ccccc2Cl)ccc1O` [Compound 51, 3-(2-Chlorophenyl)-2-{[(3-ethoxy-4-hydroxyphenyl)methylidene]hydrazinylidene}-1,3-thiazolidin-4-one] had a melting point of 196 to 198 °C. `O=C1CSC(=NN=Cc2ccccc2O)N1c1cccc(Cl)c1` [Compound 52, 3-(3-Chlorophenyl)-2-{[(2-hydroxyphenyl)methylidene]hydrazinylidene}-1,3-thiazolidin-4-one] registered a melting point of 194 to 196 °C.

Turning to `O=C1CSC(=NN=Cc2cccc(O)c2)N1c1cccc(Cl)c1` [Compound 53, 3-(3-Chlorophenyl)-2-{[(3-hydroxyphenyl)methylidene]hydrazinylidene}-1,3-thiazolidin-4-one], the melting point was 198 to 200 °C. In addition, the CC50 at 24 h in series [1] was 113 µM. As for `O=C1CSC(=NN=Cc2ccc(O)cc2)N1c1cccc(Cl)c1` [Compound 54, 3-(3-Chlorophenyl)-2-{[(4-hydroxyphenyl)methylidene]hydrazinylidene}-1,3-thiazolidin-4-one], the melting point lay in the range of 262 to 264 °C. Also, the CC50 at 24 h in series [1] was 289 µM.

For `COc1cc(C=NN=C2SCC(=O)N2c2cccc(Cl)c2)ccc1O` [Compound 55, 3-(3-Chlorophenyl)-2-{[(4-hydroxy-3-methoxyphenyl)methylidene]hydrazinylidene}-1,3-thiazolidin-4-one], the melting point lay within 210 to 212 °C. Regarding `CCOc1cc(C=NN=C2SCC(=O)N2c2cccc(Cl)c2)ccc1O` [Compound 56, 3-(3-Chlorophenyl)-2-{[(3-ethoxy-4-hydroxyphenyl)methylidene]hydrazinylidene}-1,3-thiazolidin-4-one], the melting point was 214 to 216 °C. `O=C1CSC(=NN=Cc2ccccc2O)N1c1ccc(Cl)cc1` [Compound 57, 3-(4-Chlorophenyl)-2-{[(2-hydroxyphenyl)methylidene]hydrazinylidene}-1,3-thiazolidin-4-one]: the melting point fell in the range of 238 to 240 °C. Molecule `O=C1CSC(=NN=Cc2cccc(O)c2)N1c1ccc(Cl)cc1` [Compound 58, 3-(4-Chlorophenyl)-2-{[(3-hydroxyphenyl)methylidene]hydrazinylidene}-1,3-thiazolidin-4-one] had a melting point of 230 to 232 °C. Besides, in series [1], the cytotoxic concentration (CC50) at 24 h is 173 µM. Taken in the same sequence, the figures for `O=C1CSC(=NN=Cc2ccc(O)cc2)N1c1ccc(Cl)cc1` [Compound 59, 3-(4-Chlorophenyl)-2-{[(4-hydroxyphenyl)methylidene]hydrazinylidene}-1,3-thiazolidin-4-one] were 280 to 282 °C and 318 µM. On to `COc1cc(C=NN=C2SCC(=O)N2c2ccc(Cl)cc2)ccc1O` [Compound 60, 3-(4-Chlorophenyl)-2-{[(4-hydroxy-3-methoxyphenyl)methylidene]hydrazinylidene}-1,3-thiazolidin-4-one], for which the melting point lay within 226 to 228 °C. `CCOc1cc(C=NN=C2SCC(=O)N2c2ccc(Cl)cc2)ccc1O` [Compound 61, 3-(4-Chlorophenyl)-2-{[(3-ethoxy-4-hydroxyphenyl)methylidene]hydrazinylidene}-1,3-thiazolidin-4-one] returned a melting point of 218 to 220 °C.

As to `O=C1CSC(=NN=Cc2ccc(O)c(Cl)c2)N1c1ccc(Cl)cc1` [Compound 62, 2-{[(3-Chloro-4-hydroxyphenyl)methylidene]hydrazinylidene}-3-(4-chlorophenyl)-1,3-thiazolidin-4-one], the melting point is 231 to 233 °C.

`O=C1CSC(=NN=Cc2ccc(O)c(Br)c2)N1c1ccc(Cl)cc1` [Compound 63, 2-{[(3-Bromo-4-hydroxyphenyl)methylidene]hydrazinylidene}-3-(4-chlorophenyl)-1,3-thiazolidin-4-one] gave a melting point of 235 to 236 °C. With `COc1cc(C=NN=C2SCC(=O)N2c2ccc(Cl)cc2Cl)ccc1O` [Compound 64, 3-(2,4-Dichlorophenyl)-2-{[(4-hydroxy-3-methoxyphenyl)methylidene]hydrazinylidene}-1,3-thiazolidin-4-one], the melting point fell in the range of 140 to 142 °C. The molecule `O=C1CSC(=NN=Cc2cccc(O)c2)N1c1ccc(Br)cc1` [Compound 65, 3-(4-Bromophenyl)-2-{[(3-hydroxyphenyl)methylidene]hydrazinylidene}-1,3-thiazolidin-4-one] returned a melting point of 242 to 244 °C. For the same molecule, the CC50 at 24 h in series [1] is 83.5 µM.

Take `O=C1CSC(=NN=Cc2ccc(O)cc2)N1c1ccc(Br)cc1` [Compound 66, 3-(4-Bromophenyl)-2-{[(4-hydroxyphenyl)methylidene]hydrazinylidene}-1,3-thiazolidin-4-one]: the melting point lay within 288 to 290 °C. Further, in series [1], the CC50 at 24 h was 247 µM. In turn, `O=C1CSC(=NN=Cc2cccc(O)c2)N1c1ccc(F)cc1` [Compound 68, 3-(4-Fluorophenyl)-2-{[(3-hydroxyphenyl)methylidene]hydrazinylidene}-1,3-thiazolidin-4-one] yielded a melting point of 204 to 206 °C. Also, in series [1], the CC50 at 24 h was 180 µM. On to `O=C1CSC(=NN=Cc2ccc(O)cc2)N1c1ccc(F)cc1` [Compound 69, 3-(4-Fluorophenyl)-2-{[(4-hydroxyphenyl)methylidene]hydrazinylidene}-1,3-thiazolidin-4-one], for which the half-maximal cytotoxic concentration (CC50) at 24 h in series [1] is 386 µM. Molecule `COc1cc(C=NN=C2SCC(=O)N2c2ccc(F)cc2)ccc1O` [Compound 70, 3-(4-Fluorophenyl)-2-{[(4-hydroxy-3-methoxyphenyl)methylidene]hydrazinylidene}-1,3-thiazolidin-4-one] had a melting point of 236 to 238 °C. `CCOc1cc(C=NN=C2SCC(=O)N2c2ccc(F)cc2)ccc1O` [Compound 71, 2-{[(3-Ethoxy-4-hydroxyphenyl)methylidene]hydrazinylidene}-3-(4-fluorophenyl)-1,3-thiazolidin-4-one] displayed a melting point of 240 to 242 °C. On to `O=C1CSC(=NN=Cc2ccc(O)c(Cl)c2)N1c1ccc(F)cc1` [Compound 72, 2-{[(3-Chloro-4-hydroxyphenyl)methylidene]hydrazinylidene}-3-(4-fluorophenyl)-1,3-thiazolidin-4-one], for which the melting point was 222 to 224 °C.

Take `O=C1CSC(=NN=Cc2ccc(O)c(Br)c2)N1c1ccc(F)cc1` [Compound 73, 2-{[(3-Bromo-4-hydroxyphenyl)methylidene]hydrazinylidene}-3-(4-fluorophenyl)-1,3-thiazolidin-4-one]: the melting point lay in the range of 224 to 226 °C. Consider `O=C(O)CC1SC(=NN=Cc2ccccc2O)N(c2ccccc2)C1=O` (stereo not shown) [Compound 74, [2-{[(2-Hydroxyphenyl)methylidene]hydrazinylidene}-4-oxo-3-phenyl-1,3-thiazolidin-5-yl]acetic acid], for which the melting point lay in the range of 228 to 230 °C. The half-maximal cytotoxic concentration (CC50) at 24 h in series [1] is 501 µM. As for `COc1cc(C=NN=C2SC(CC(=O)O)C(=O)N2c2ccccc2)ccc1O` (stereo not shown) [Compound 77, [2-{[(4-Hydroxy-3-methoxyphenyl)methylidene]hydrazinylidene}-4-oxo-3-phenyl-1,3-thiazolidin-5-yl]acetic acid], the CC50 at 24 h in series [1] is at least 1000 µM.

The values above are taken from article PMC6749389, “Synthesis and In Vitro Anti-Toxoplasma gondii Activity of Novel Thiazolidin-4-one Derivatives” (Molecules, 2019).
